Values of other authors in patent publication US7772228B2, “Method for treatment of bacterial infections with once or twice-weekly administered rifalazil” (priority 1998, dated 2010).

Test system: M. tuberculosis
Conditions: depending on the degree of resistance to rifampin; cited from earlier work

In the case of `CO[C@H]1/C=C/O[C@@]2(C)Oc3c(C)c(O)c4c(O)c(c(/C=N/N5CCN(C)CC5)c(O)c4c3C2=O)NC(=O)/C(C)=C\C=C\[C@H](C)[C@H](O)[C@@H](C)[C@@H](O)[C@@H](C)[C@H](OC(C)=O)[C@@H]1C` [Rifampin, rifampin, reference compound], the “MICs for MTB, range” value is given as <0.002 to 4.0 µg/mL.
